Experimental data: US10532985B2, “Heterocycle and carbocycle derivatives having TRKA inhibitory activity” (Shionogi & Co., Ltd., priority 2014, dated 2020)
Where two headings read alike, the source gives them in different places.

Target: T1, human TrkA (Homo sapiens, UniProt P04629)
T1 construct: purchased Lifetechnologies PV3144
Assay: Test Example 2: Human TrkA Inhibition Assay
Format: biochemical
Settings: Test Example 2
Experimental: After the incubation for 90 min at room temperature, ten μL of termination buffer (100 mmol/L HEPES, 40 mmol/L ethylenediaminetetraacetic acid (EDTA), 10 mmol/L magnesium chloride, 0.003 vol % Brij-35, 0.004 vol % Tween20, 1 mmol/L DTT and 0.16 vol % Coating Reagent 3) was added in each well to stop the enzyme reaction. Fluorescent intensities (FI) of phosphorylated and non-phosphorylated fluorescent substrates were measured by LabChip EZReader II (Caliper LifeSciences, Inc.) and conversion ratio (CR) was calculated by the following formula-1. The CR in the well applied with DMSO alone was used as a negative control and the CR in the well without applying TrkA was used as a positive control. The inhibitory effect of each compound on TrkA phosphorylation was calculated by the following formula-2. CR (%)=(FI of phosphorylated substrate/(FI of phosphorylated substrate+FI of non-phosphorylated substrate))×100 (Formula-1) Inhibitory effect on TrkA phosphorylation (%)=(1−(CR in compound treated well−CR in positive control)/(CR in negative control−CR in positive control))×100. (Formula-2)

[1] = human TrkA inhibition, class symbols A/B/C, read-out: IC50_nM
[2] = human TrkA 2.5 nmol/L, ATP 500 μmol/L, 90 min at room temperature, read-out: TrkA inhibitory activity IC50

T1 sequence (P04629 33-796): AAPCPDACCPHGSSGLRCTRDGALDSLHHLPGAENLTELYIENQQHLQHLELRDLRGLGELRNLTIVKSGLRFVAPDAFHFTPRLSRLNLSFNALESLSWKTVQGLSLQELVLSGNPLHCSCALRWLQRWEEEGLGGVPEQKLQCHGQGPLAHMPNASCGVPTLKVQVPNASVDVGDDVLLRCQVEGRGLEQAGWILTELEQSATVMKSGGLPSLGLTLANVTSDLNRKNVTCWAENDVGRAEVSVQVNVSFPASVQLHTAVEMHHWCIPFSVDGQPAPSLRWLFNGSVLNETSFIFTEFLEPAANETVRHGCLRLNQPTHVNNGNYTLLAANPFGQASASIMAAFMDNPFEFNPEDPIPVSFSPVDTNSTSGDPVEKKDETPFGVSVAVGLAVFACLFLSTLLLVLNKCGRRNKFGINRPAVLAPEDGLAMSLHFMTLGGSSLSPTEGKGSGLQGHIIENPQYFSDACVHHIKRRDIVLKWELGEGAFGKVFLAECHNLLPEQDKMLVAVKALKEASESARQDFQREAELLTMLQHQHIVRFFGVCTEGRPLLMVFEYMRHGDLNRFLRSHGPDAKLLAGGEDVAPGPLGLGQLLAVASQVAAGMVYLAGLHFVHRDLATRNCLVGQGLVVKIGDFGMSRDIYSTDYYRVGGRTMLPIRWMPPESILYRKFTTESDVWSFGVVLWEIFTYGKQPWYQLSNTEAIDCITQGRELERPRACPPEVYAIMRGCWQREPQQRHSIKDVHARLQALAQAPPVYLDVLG

Compound	IC50 [1]	IC50 [2]
COCCN1C[C@@H](NC(=NS(C)(=O)=O)Nc2c(C)c(-c3cnn(C)c3)nn2-c2ccccc2)[C@H](c2ccccc2)C1 [Compound I-141]	–	1100 nM
COCCN1C[C@@H](NC(=NO)Nc2c(C)c(-c3cnn(C)c3)nn2-c2ccccc2)[C@H](c2ccccc2)C1 [Compound I-129]	–	440 nM
Cc1c(-c2cnn(C)c2)nn(-c2ccccc2)c1NC(=O)N[C@@H]1CN(CC(F)(F)F)C(=O)[C@H]1c1ccccc1 (racemic) [Compound I-44]	–	700 nM
Cc1c(-c2cnn(C)c2)nn(-c2ccccc2)c1NC(=O)N[C@@H]1CN(CC2CCCCO2)C[C@H]1c1ccc(F)c(F)c1 (stereo partly drawn) [Compound I-43]	> 1000 nM	–
CCOC1CC(N2C[C@@H](NC(=O)Nc3c(C)c(-c4cnn(C)c4)nn3-c3ccccc3)[C@H](c3ccc(F)c(F)c3)C2)C1 (stereo partly drawn) [Compound I-160]	> 1000 nM	–
COCCN1C[C@@H](NC(=O)Nc2c(C)c(-c3cnn(C)c3)nn2-c2ccccc2)[C@H](c2cccc(-c3ccc(C#N)s3)c2)C1 (racemic) [Compound I-53]	> 1000 nM	–
Cc1c(-c2cnn(C)c2)nn(-c2ccccc2)c1NC(=O)NC1CNCCC1c1ccc(F)c(F)c1 (stereo not drawn) [Compound I-2]	> 1000 nM	–
Cc1c(-c2cnn(C)c2)nn(-c2ccccc2)c1NC(=O)N[C@@H]1CN(CCNC(=O)C(F)(F)F)C[C@H]1c1ccc(F)c(F)c1 [Compound I-72]	> 1000 nM	–
Cc1c(-c2cnn(C)c2)nn(-c2ccccc2)c1NC(=O)N[C@@H]1CC(=O)C[C@H]1c1ccccc1 (racemic) [Compound I-161]	–	4200 nM
Cc1c(-c2cnn(C)c2)nn(-c2ccccc2)c1NC(=O)N[C@@H]1CN(C(=O)OC(C)(C)C)C[C@H]1c1ccccc1 (racemic) [Compound I-5]	> 1000 nM	–
COC(=O)[C@@H]1C[C@@H](NC(=O)Nc2c(C)c(-c3cnn(C)c3)nn2-c2ccccc2)[C@H](c2ccc(F)c(F)c2)N1 (racemic) [Compound I-47]	> 1000 nM	–
COCCN1C[C@@H](NC(=O)Nc2c(C)c(-c3cnn(C)c3)nn2-c2ccccc2)[C@H](c2cccc(-c3ccc(C(=O)OC)cc3)c2)C1 (racemic) [Compound I-54]	> 1000 nM	–
Cc1c(-c2cnn(C)c2)nn(-c2ccccc2)c1NC(=O)N[C@@H]1CN(CC(F)(F)F)C(=O)[C@H]1c1ccc(F)c(F)c1 [Compound I-74]	> 1000 nM	–
CC(=O)NCCN1C[C@@H](NC(=O)Nc2c(C)c(-c3cnn(C)c3)nn2-c2ccccc2)[C@H](c2ccc(F)c(F)c2)C1 [Compound I-40]	> 1000 nM	–
COCCN1C[C@@H](NC(=NOC)Nc2c(C)c(-c3cnn(C)c3)nn2-c2ccccc2)[C@H](c2ccccc2)C1 [Compound I-144]	> 1000 nM	–
COCCN1C[C@@H](NC(=O)Nc2c(C)c(-c3cnn(C)c3)nn2-c2ccccc2)[C@H](c2ccc3c(c2)N(C(=O)OC(C)(C)C)CCO3)C1 (racemic) [Compound I-167]	> 1000 nM	–
COCC(CC#N)N1C[C@@H](NC(=O)Nc2c(C)c(-c3cnn(C)c3)nn2-c2ccccc2)[C@H](c2ccc(F)c(F)c2)C1 (stereo partly drawn) [Compound I-93]	–	21 nM
Cc1c(-c2cnn(C)c2)nn(-c2ccccc2)c1NC(=O)N[C@@H]1CN(C2CCCC2)C[C@H]1c1ccc(F)c(F)c1 [Compound I-166]	> 1000 nM	–
Cc1c(-c2cnn(C)c2)nn(-c2ccccc2)c1NC(=O)N[C@@H]1CN(C=O)C[C@H]1c1ccc(F)c(F)c1 [Compound I-35]	> 1000 nM	–
COCC(C(=O)N(C)C)N1C[C@@H](NC(=O)Nc2c(C)c(-c3cnn(C)c3)nn2-c2ccccc2)[C@H](c2ccc(F)c(F)c2)C1 (stereo partly drawn) [Compound I-174]	> 1000 nM	–
COCCN1C[C@@H](NC(=O)Nc2c(C)c(-c3cnn(C)c3)nn2-c2ccccc2)[C@H](c2cccc(-c3ccncc3)c2)C1 (racemic) [Compound I-60]	> 1000 nM	–
COCCN1C[C@@H](NC(=O)Nc2c(C)c(OCC(C)(C)O)nn2-c2ccccc2)[C@H](C2CCC(F)(F)CC2)C1 (racemic) [Compound I-34]	> 1000 nM	–
COCC(C(=O)N(C)C)N1C[C@@H](NC(=O)Nc2c(C)c(-c3cnn(C)c3)nn2-c2ccccc2)[C@H](c2ccc(F)c(F)c2)C1 (stereo partly drawn) [Compound I-155]	> 1000 nM	–
Cc1c(-c2cnn(C)c2)nn(-c2ccccc2)c1NC(=O)N[C@@H]1CN(C2COC(=O)C2)C[C@H]1c1ccc(F)c(F)c1 (stereo partly drawn) [Compound I-152]	> 1000 nM	–
COCC(=O)N1C[C@@H](NC(=O)Nc2c(C)c(-c3cnn(C)c3)nn2-c2ccccc2)[C@H](c2ccc(F)c(F)c2)C1 [Compound I-26]	> 1000 nM	–

Further lines, results first:

IC50 [1]	IC50 [2]	Compound
> 1000 nM	–	COCC(CN1CCOCC1)N1C[C@@H](NC(=O)Nc2c(C)c(-c3cnn(C)c3)nn2-c2ccccc2)[C@H](c2ccc(F)c(F)c2)C1 (stereo partly drawn) [Compound I-158]
> 1000 nM	–	COCCN1C[C@@H](NC(=O)Nc2c(C)c(-c3cnn(C)c3)nn2-c2ccccc2)[C@H](c2cccc(C3=CCCCC3)c2)C1 (racemic) [Compound I-58]
< 100 nM	–	Cc1c(-c2cnn(C)c2)nn(-c2ccccc2)c1NC(=O)N[C@@H]1CN(Cc2ccon2)C[C@H]1c1ccc(F)c(F)c1 [Compound I-98]
100 to 1000 nM	–	Cc1c(-c2cnn(C)c2)nn(-c2ccccc2)c1NC(=O)N[C@@H]1CN(CC2CC2)C[C@H]1c1ccc(F)c(F)c1 [Compound I-66]
< 100 nM	–	Cc1c(-c2cnn(C)c2)nn(-c2ccccc2)c1NC(=O)N[C@@H]1CN(Cc2nccs2)C[C@H]1c1ccc(F)c(F)c1 [Compound I-97]
> 1000 nM	–	COCCN1C[C@@H](NC(=O)Nc2c(C)c(-c3cnn(C)c3)nn2-c2ccccc2)[C@H](c2cccc(C(=O)O)c2)C1 (racemic) [Compound I-82]
> 1000 nM	–	COCC1(O)C[C@@H](NC(=O)Nc2c(C)c(-c3cnn(C)c3)nn2-c2ccccc2)[C@H](c2ccccc2)C1 (stereo partly drawn) [Compound I-164]
> 1000 nM	–	COCCN1C[C@@H](NC(=O)Nc2c(C)c(-c3cnn(C)c3)nn2-c2ccccc2)[C@@]2(CCc3ccccc32)C1 (racemic) [Compound I-7]
< 100 nM	–	Cc1c(-c2cnn(C)c2)nn(-c2ccccc2)c1NC(=O)N[C@@H]1CN(Cc2cscn2)C[C@H]1c1ccc(F)c(F)c1 [Compound I-90]
100 to 1000 nM	–	Cc1c(-c2cnn(C)c2)nn(-c2ccccc2)c1NC(=O)N[C@@H]1CN(CCNS(C)(=O)=O)C[C@H]1c1ccc(F)c(F)c1 [Compound I-42]
> 1000 nM	–	Cc1c(-c2cnn(C)c2)nn(-c2ccccc2)c1NC(=O)N[C@@H]1CN(C2CCCCC2)C[C@H]1c1ccc(F)c(F)c1 [Compound I-143]
> 1000 nM	–	COCCN1C[C@@H](NC(=O)Nc2c(C)c(-c3cnn(C)c3)nn2-c2ccccc2)[C@H](c2ccc3cccnc3c2)C1 (racemic) [Compound I-150]
< 100 nM	–	COCCN1C[C@@H](NC(=O)Nc2c(C)c(-c3cnn(C)c3)nn2-c2ccccc2)[C@H](c2cccc(/C=C/c3ccccc3)c2)C1 (racemic) [Compound I-49]
> 1000 nM	–	Cc1c(-c2cnn(C)c2)nn(-c2ccccc2)c1NC(=O)N[C@@H]1CN(Cc2ccccc2)C[C@H]1C1CCCCC1 (racemic) [Compound I-18]
100 to 1000 nM	–	Cc1c(-c2cnn(C)c2)nn(-c2ccccc2)c1NC(=O)N[C@@H]1CN(Cc2ccoc2)C[C@H]1c1ccc(F)c(F)c1 [Compound I-118]
< 100 nM	–	COCCN1C[C@@H](NC(=O)Nc2c(C)c(-c3cnn(C)c3)nn2-c2ccccc2)[C@H](c2cccc(-c3ccoc3)c2)C1 (racemic) [Compound I-51]
> 1000 nM	–	Cc1c(-c2cnn(C)c2)nn(-c2ccccc2)c1NC(=O)N[C@@H]1CN(c2nn[nH]n2)C[C@H]1c1ccc(F)c(F)c1 [Compound I-148]
> 1000 nM	–	COCCN1C[C@@H](NC(=O)Nc2c(C)c(-c3cnn(C)c3)nn2-c2ccccc2)[C@H](c2cccc(-c3cn[nH]c3)c2)C1 (racemic) [Compound I-175]
100 to 1000 nM	–	CNCC(COC)N1C[C@@H](NC(=O)Nc2c(C)c(-c3cnn(C)c3)nn2-c2ccccc2)[C@H](c2ccc(F)c(F)c2)C1 (stereo partly drawn) [Compound I-138]
100 to 1000 nM	–	CCON=C1C[C@@H](NC(=O)Nc2c(C)c(-c3cnn(C)c3)nn2-c2ccccc2)[C@H](c2ccccc2)C1 [Compound I-120]
100 to 1000 nM	–	COCC(CNOC)N1C[C@@H](NC(=O)Nc2c(C)c(-c3cnn(C)c3)nn2-c2ccccc2)[C@H](c2ccc(F)c(F)c2)C1 (stereo partly drawn) [Compound I-113]
100 to 1000 nM	–	CCOC(=O)CC1C[C@@H](NC(=O)Nc2c(C)c(-c3cnn(C)c3)nn2-c2ccccc2)[C@H](c2ccccc2)C1 (stereo partly drawn) [Compound I-124]
100 to 1000 nM	–	COCC(CNS(C)(=O)=O)N1C[C@@H](NC(=O)Nc2c(C)c(-c3cnn(C)c3)nn2-c2ccccc2)[C@H](c2ccc(F)c(F)c2)C1 (stereo partly drawn) [Compound I-140]
100 to 1000 nM	–	CCOC(=O)C=C1C[C@@H](NC(=O)Nc2c(C)c(-c3cnn(C)c3)nn2-c2ccccc2)[C@H](c2ccccc2)C1 [Compound I-126]
< 100 nM	–	Cc1c(-c2cnn(C)c2)nn(-c2ccccc2)c1NC(=O)N[C@@H]1CC(C)C[C@H]1c1ccccc1 (stereo partly drawn) [Compound I-36]
100 to 1000 nM	–	COCC(CC(=O)OC)N1C[C@@H](NC(=O)Nc2c(C)c(-c3cnn(C)c3)nn2-c2ccccc2)[C@H](c2ccc(F)c(F)c2)C1 (stereo partly drawn) [Compound I-117]
